For assay [1], the target named is T1, kappa opioid receptor (Mus musculus, UniProt P33534).
T1 construct: from tissue; host or cells: mouse vas deferens (male Swiss Albino mice)
As to the kind of experiment: Ex-vivo KOR agonistic activity, electrically stimulated mouse vas deferens (MVD) model. The procedure: a) Ex-Vivo KOR Agonistic Activity Testing, Using Electrically Stimulated Mouse Vas Deferens (MVD) Model:
Ex-vivo, the kappa opioid receptor agonistic activity of test compounds were tested on the electrically stimulated mouse vas deferens (MVD) preparations (Henderson et al., Br. J. Pharmacol., 46, 764-766, 1972; Portoghese et al., Life Sci. 36, 801-805, 1985) and IC50 were determined. In general, vas deferentia were taken from male Swiss Albino mice (30-40 g) and suspended in 8 ml organ baths, at 31° C., containing modified Krebs-Henseleit solution, without magnesium sulphate. Each vas deferens was equilibrated for 45 min at 2.6 mN tension and then stimulated at supramaximal voltage with five 1 ms pulses, at a frequency of 0.1 Hz. Concentration-response curves were determined by cumulative dosing. Inhibitory Concentration, 50% (IC50) values were determined by Sigmoidal dose-response (variable slope) equation, using Prizm v 6.01. The kappa opioid receptor specificity was determined by rightward shift in concentration-response curves in presence of 1 nM norbinaltorphimine (norBNI), a selective kappa opioid receptor antagonist.

Assay [2] concerns the target T2, kappa opioid receptor (Homo sapiens, UniProt P41145).
T2 construct: grown in complete Ham's F-12 medium
As to the kind of experiment: Invitro KOR agonistic activity, cAMP based functional assay. It is filed as cell-based.

What is called IC50 is the concentration at which inhibition is half-maximal. A higher IC50 goes with lower potency. What is called EC50 is the concentration that produces a half-maximal response.

T1 sequence (P33534 whole entry): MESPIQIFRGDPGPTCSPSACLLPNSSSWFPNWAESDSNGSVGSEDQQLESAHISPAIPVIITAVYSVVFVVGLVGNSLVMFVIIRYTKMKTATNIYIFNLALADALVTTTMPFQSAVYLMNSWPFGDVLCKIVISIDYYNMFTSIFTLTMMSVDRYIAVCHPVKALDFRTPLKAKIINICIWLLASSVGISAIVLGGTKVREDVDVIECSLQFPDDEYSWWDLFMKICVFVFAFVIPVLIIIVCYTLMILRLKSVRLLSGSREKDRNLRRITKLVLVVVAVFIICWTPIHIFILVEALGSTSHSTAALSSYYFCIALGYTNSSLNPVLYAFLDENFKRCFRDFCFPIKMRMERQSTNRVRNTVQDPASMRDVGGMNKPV
T2 sequence (P41145 whole entry): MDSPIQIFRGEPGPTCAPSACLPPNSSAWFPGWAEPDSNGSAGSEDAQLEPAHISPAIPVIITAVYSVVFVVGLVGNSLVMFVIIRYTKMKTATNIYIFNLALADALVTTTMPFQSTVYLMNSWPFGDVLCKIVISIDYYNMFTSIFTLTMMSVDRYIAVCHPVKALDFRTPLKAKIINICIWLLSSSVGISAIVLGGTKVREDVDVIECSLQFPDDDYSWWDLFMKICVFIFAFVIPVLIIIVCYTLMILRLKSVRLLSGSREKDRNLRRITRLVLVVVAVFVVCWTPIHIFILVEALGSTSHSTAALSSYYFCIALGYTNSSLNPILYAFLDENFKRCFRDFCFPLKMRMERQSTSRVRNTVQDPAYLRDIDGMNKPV

With `CCOC(=O)COc1cccc([C@@H](CN2CC[C@H](O)C2)N(C)C(=O)COc2ccc(NS(C)(=O)=O)c3ncccc23)c1` [Compound 50], at kappa opioid receptor [1], the 50% inhibitory concentration (IC50) was 221 nM. For the same molecule, the EC50 on kappa opioid receptor [2] was 0.001 nM.
`CN(C(=O)COc1ncc(NS(C)(=O)=O)c2ccccc12)[C@H](CN1CC[C@H](O)C1)c1ccccc1` [Compound 10, N-((S)-2-((S)-3-hydroxypyrrolidin-1-yl)-1-phenylethyl)-N-methyl-2-((4-methylsulfonamido)isoquinolin-1-yloxy)acetamide] returned an IC50 on kappa opioid receptor [1] of 54 nM. For the same molecule, at kappa opioid receptor [2], the midpoint of the response, the EC50, lay at 0.089 nM.
For the molecule `CN(C(=O)COc1ccc(NS(C)(=O)=O)c2ncccc12)[C@H](CN1CC[C@H](O)C1)c1cccc([N+](=O)[O-])c1` [Compound 42, N-((S)-2-((S)-3-hydroxypyrrolidin-1-yl)-1-(3-nitrophenyl)ethyl)-N-methyl-2-((8-(methylsulfonamido)quinolin-5-yl)oxy) acetamide], the IC50 at kappa opioid receptor [1] is 50 nM. At kappa opioid receptor [2], the EC50 stood at 0.044 nM.
`CN(C(=O)COc1ccc([N+](=O)[O-])c2c1NCCC2)[C@H](CN1CC[C@H](O)C1)c1ccccc1` [Compound 8, N-((S)-2-((S)-3-hydroxypyrrolidin-1-yl)-1-phenylethyl)-N-methyl-2-((5-nitroquinolin-1,2,3,4-tetrahydroquinolin-8-yl)oxy)acetamide] showed an IC50 at kappa opioid receptor [1] of 6.2 nM. In addition, a half-maximal response on kappa opioid receptor [2] (EC50) required 0.018 nM.
`CN(C(=O)COc1ccc(NC(=N)N)c2ncccc12)[C@H](CN1CC[C@H](O)C1)c1ccccc1` [Compound 40, 2-((8-guanidinoquinolin-5-yl)oxy)-N-((S)-2-((S)-3-hydroxypyrrolidin-1-yl)-1-phenylethyl)-N-methylacetamide] had an IC50 at kappa opioid receptor [1] of 1.1 nM. Also, the EC50 on kappa opioid receptor [2] amounted to 0.007 nM.
In the same order, the values of `CC(=O)Nc1cccc([C@@H](CN2CC[C@H](O)C2)N(C)C(=O)COc2ccc(NS(C)(=O)=O)c3ncccc23)c1` [Compound 45, N-((S)-1-(3-acetamidophenyl)-2-((S)-3-hydroxypyrrolidin-1-yl)ethyl)-N-methyl-2-((8-(methylsulfonamido)quinolin-5-yl)oxy) acetamide] are 14 nM and 0.066 nM.
Take `CN(C(=O)COc1cc(NS(C)(=O)=O)c2ccccc2n1)[C@H](CN1CC[C@H](O)C1)c1ccccc1` [Compound 3, N-((S)-2-((S)-3-hydroxypyrrolidin-1-yl)-1-phenylethyl)-N-methyl-2-((4-methylsulfonamido)quinolin-2-yloxy)acetamide]: at kappa opioid receptor [1], the IC50 stood at 414 nM. The same molecule displayed an EC50 on kappa opioid receptor [2] of 0.035 nM.
With `CN(C(=O)COc1ccc2c(c1)CCCN2)[C@H](CN1CC[C@H](O)C1)c1ccccc1` [Compound 21, N-((S)-2-((S)-3-hydroxypyrrolidin-1-yl)-1-phenylethyl)-N-methyl-2-((1,2,3,4-tetrahydroquinolin-6-yl)oxy)acetamide], the concentration for half-maximal inhibition (IC50) on kappa opioid receptor [1] was determined as 570 nM. The midpoint of the response at kappa opioid receptor [2], the EC50, lay at 1.23 nM.
Molecule `CN(C(=O)COc1ccc2ccoc2c1)[C@H](CN1CC[C@H](O)C1)c1cccc([N+](=O)[O-])c1` [Compound 55, 2-(benzofuran-6-yloxy)-N-((S)-2-((S)-3-hydroxypyrrolidin-1-yl)-1-(3-nitrophenyl)ethyl)-N-methylacetamide] registered an IC50 on kappa opioid receptor [1] of 307 nM. On kappa opioid receptor [2], this molecule displayed an EC50 of 1.92 nM.
In the same order, the values of `CN(C(=O)COc1ccc(NS(C)(=O)=O)c2ncccc12)[C@H](CN1CC[C@H](O)C1)c1cccc(C(F)(F)F)c1` [Compound 53, N-((S)-2-((S)-3-hydroxypyrrolidin-1-yl)-1-(3-(trifluoromethyl)phenyl)ethyl)-N-methyl-2-((8-(methylsulfonamido)quinolin-5-yl)oxy) acetamide] are 73 nM and 0.68 nM.
In turn, `CN(C(=O)COc1ccc2ccccc2n1)[C@H](CN1CC[C@H](O)C1)c1ccccc1` [Compound 1, N-((S)-2-((S)-3-hydroxypyrrolidin-1-yl)-1-phenylethyl)-N-methyl-2-(quinolin-2-yloxy)acetamide] showed a half-maximal inhibitory concentration (IC50) at kappa opioid receptor [1] of 3.5 nM. This molecule also came in with an EC50 on kappa opioid receptor [2] of 0.022 nM.

The record behind these values is patent US20170007610A1, “NOVEL HETEROBICYCLIC COMPOUNDS AS KAPPA OPIOID AGONISTS” (priority 2014, published 2017).
